Measured values: US9980943B2, “Methods of treating muscular dystrophy” (BOARD OF REGENTS OF THE NEVADA SYSTEM OF HIGHER EDUCATION, …, priority 2013, dated 2018)

Legend:
Format in all cases: cell-based, mouse
[1] = system: β-galactosidase in CMV-LacZ C2C12 myotubes; assay: CMV-LacZ secondary screen in C2C12 myotubes (β-Gal stabilizing assay); conditions: for CMV-LACZ in Myotubes (β-galactosidase activity relative to DMSO): CMV-LacZ C2C12 myotubes, 96-well format; for CMV-LACZ in Myotubes, signal relative to DMSO: C2C12 CMV-LacZ myotubes, fold relative to DMSO
In short: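 β-gal stabilization was measured in C2C12 myoblasts or myotubes stably transfected with a CMV-driven LacZ construct, using the FDG β-gal assay. Compounds were tested in dose-response at 0.5, 1, 5, 10, 20 and 40 μM, with two replicates per point.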

[2] = system: α7 integrin (LacZ reporter in α7+/LacZ myotubes); assay: Myotube α7 integrin FDG assay (Burkin assay in myotubes, 96-well); conditions: myotubes
[3] = system: α7 integrin (LacZ reporter in α7βgal+/− myoblasts); assay: Myoblast α7+/LacZ integrin FDG assay (Burkin assay in myoblasts, 96-well); conditions: α7+/LacZ myoblasts, 96-well

| SMILES | Burkin Assay in Myotubes (signal relative to DMSO) ([2]; 0.5 uM) | Burkin Assay in Myotubes (signal relative to DMSO) ([2]; 1 uM) | Burkin Assay in Myotubes (signal relative to DMSO) ([2]; 5 uM) | Burkin Assay in Myotubes (signal relative to DMSO) ([2]; 10 uM) | Burkin Assay in Myotubes (signal relative to DMSO) ([2]; 20 uM) | Burkin Assay in Myotubes (signal relative to DMSO) ([2]; 40 uM) | Burkin Assay in Myoblasts, value relative to DMSO ([3]; 0.5 uM) | Burkin Assay in Myoblasts, value relative to DMSO ([3]; 1 uM) | Burkin Assay in Myoblasts, value relative to DMSO ([3]; 5 uM) | Burkin Assay in Myoblasts, value relative to DMSO ([3]; 10 uM) | Burkin Assay in Myoblasts, value relative to DMSO ([3]; 20 uM) | Burkin Assay in Myoblasts, value relative to DMSO ([3]; 40 uM) | CMV-LACZ in Myotubes, signal relative to DMSO ([1]; 5 uM) | CMV-LACZ in Myotubes, signal relative to DMSO ([1]; 10 uM) | CMV-LACZ in Myotubes, signal relative to DMSO ([1]; 20 uM) | CMV-LACZ in Myotubes, signal relative to DMSO ([1]; 40 uM) | Burkin Assay in Myotubes, α7 integrin LacZ reporter signal relative to DMSO ([2]; 0.5 uM) | Burkin Assay in Myotubes, α7 integrin LacZ reporter signal relative to DMSO ([2]; 1 uM) | Burkin Assay in Myotubes, α7 integrin LacZ reporter signal relative to DMSO ([2]; 5 uM) | Burkin Assay in Myotubes, α7 integrin LacZ reporter signal relative to DMSO ([2]; 10 uM) | other results |
| --- | --- | --- | --- | --- | --- | --- | --- | --- | --- | --- | --- | --- | --- | --- | --- | --- | --- | --- | --- | --- | --- |
| COc1cc(/C=C/c2nc(-c3ccccc3O)n[nH]2)cc(OC)c1OC [MLS000548725-01] | 0.8698 | 0.8418 | 0.9206 | 0.8462 | 1.031 | 0.2219 | 0.9132 | 0.8894 | 0.8989 | 0.7645 | 0.5169 | 0.07694 | – | – | – | – | – | – | – | – | CMV-LACZ in Myotubes (β-galactosidase activity relative to DMSO) ([1]; 5 uM): 0.9789; CMV-LACZ in Myotubes (β-galactosidase activity relative to DMSO) ([1]; 10 uM): 1.126; CMV-LACZ in Myotubes (β-galactosidase activity relative to DMSO) ([1]; 20 uM): 0.8729; CMV-LACZ in Myotubes (β-galactosidase activity relative to DMSO) ([1]; 40 uM): 0.332 |
| COc1ccc(CCNC(=O)c2cc(-c3cc(C)ccc3O)n[nH]2)cc1OC [MLS000552080-01] | – | – | – | – | – | – | – | – | – | – | – | – | 1.197 | 1.0688 | 0.9522 | 0.8044 | 0.9672 | 1.15 | 1.214 | 1.24 | Burkin Assay in Myotubes, α7 integrin LacZ reporter signal relative to DMSO ([2]; 20 uM): 1.0378; Burkin Assay in Myotubes, α7 integrin LacZ reporter signal relative to DMSO ([2]; 40 uM): 0.9286; Burkin Assay in Myoblasts, signal relative to DMSO ([3]; 0.5 uM): 0.9689; Burkin Assay in Myoblasts, signal relative to DMSO ([3]; 1 uM): 0.9784; Burkin Assay in Myoblasts, signal relative to DMSO ([3]; 5 uM): 1.056; Burkin Assay in Myoblasts, signal relative to DMSO ([3]; 10 uM): 1.089; Burkin Assay in Myoblasts, signal relative to DMSO ([3]; 20 uM): 0.9333; Burkin Assay in Myoblasts, signal relative to DMSO ([3]; 40 uM): 0.8855 |
| Cc1ccc(C2=C(CC(=O)O)C(=O)CC2)cc1 [MLS000553673-01] | 0.8749 | 0.8923 | 1.304 | 1.161 | 1.088 | 1.134 | 1.009 | 0.8952 | 1.038 | 1.0007 | 0.9043 | 0.8892 | 0.8021 | 0.9603 | 1.005 | 0.9127 | – | – | – | – | – |
| O=C(Nc1ccc(Oc2cccnc2)cc1)c1ccccc1Cl [MLS000574647-01] | – | – | – | – | – | – | – | – | – | – | – | – | 0.9166 | 0.9364 | 0.962 | 1.0095 | 0.935 | 0.8646 | 1.007 | 0.8596 | Burkin Assay in Myotubes, α7 integrin LacZ reporter signal relative to DMSO ([2]; 20 uM): 1.006; Burkin Assay in Myotubes, α7 integrin LacZ reporter signal relative to DMSO ([2]; 40 uM): 0.8219; Burkin Assay in Myoblasts, signal relative to DMSO ([3]; 0.5 uM): 1.081; Burkin Assay in Myoblasts, signal relative to DMSO ([3]; 1 uM): 1.027; Burkin Assay in Myoblasts, signal relative to DMSO ([3]; 5 uM): 0.9641; Burkin Assay in Myoblasts, signal relative to DMSO ([3]; 10 uM): 0.9515; Burkin Assay in Myoblasts, signal relative to DMSO ([3]; 20 uM): 0.8985; Burkin Assay in Myoblasts, signal relative to DMSO ([3]; 40 uM): 0.8343 |
